{"source": "patent US10130562B2", "about": "“Monomer mixture for the preparation of dental materials” (Ivoclar Vivadent AG, priority 2014, dated 2018)", "origin": "cited, not measured here", "key": {"rat": {"system": "rat", "conditions": "in vivo"}}, "data": [{"smiles": "C=C(C)C(=O)OCCOCCOCCOC(=O)C(=C)C", "note": "[TEGDMA, triethylene glycol dimethacrylate]", "values": [{"measurement": "gene mutations in the DNA molecules of mammals", "setting": "DNA molecules of mammals", "value": "leads to gene mutations"}, {"measurement": "LD50", "setting": "rat", "value": "> 5000", "unit": "mg/kg"}]}]}
